PMC7041978 (The Journal of Veterinary Medical Science, 2020)
“Also recorded” adds a separate entry of the source.

Key:
[1] = test system: Toxoplasma gondii RH-2F strain; experiment: Parasite growth assay; assay type: cell-based; settings: for IC50 / inhibition at 10 µM: Toxoplasma gondii, 48 h; for IC50: read-out: IC50 for parasite growth; for inhibition at 10 µM: HFF, read-out: Parasite inhibition (%)
[2] = test system: human foreskin fibroblasts (HFF); experiment: Host cell cytotoxicity assay; assay type: cell-based; settings: for Host cell inhibition (%): 10 µM compounds, HFF cells, 48 hr; for IC50: Homo sapiens, HFF, 48 h, read-out: IC50 for host cell
[3] = test system: Toxoplasma gondii RH-2F intracellular tachyzoites; experiment: Intracellular parasite growth assay; assay type: cell-based; settings: added after 2-hr invasion, 48 hr
Toxoplasma gondii = settings: cited from earlier work

Row | Compound | IC50 [1] | inhibition at 10 µM [1] | Host cell inhibition (%) [2] | IC50 [2] | Inhibition of intracellular parasite growth ([3]; 10 µM) | also measured
1 | CC(C)=CC[C@H](O)C1=CC(=O)c2c(O)ccc(O)c2C1=O [Alkannin] | 1.3 µM | 86.9% | −0.3% | 5.4 µM |  | Host cell inhibition (%) ([2]; listed as alkannin): did not kill the host cells
2 | O=c1cc(-c2ccccc2)oc2cc(O)c(O)c(O)c12 [Baicalein] | 5 µM | 80.1% | 3.3% | > 50 µM | effectively inhibited the intracellular parasite growth | Host cell inhibition (%) ([2]; listed as baicalein): did not kill the host cells; Inhibition of intracellular parasite growth ([3]; 10 µM, listed as baicalein): effectively inhibited intracellular parasite growth
3 | COc1ccc2cc3[n+](cc2c1OC)CCc1cc2c(cc1-3)OCO2 [Berberine Chloride] | 2.2 µM | 85.5% | −3.0% | 2.8 µM |  | Host cell inhibition (%) ([2]; listed as berberine chloride): did not kill the host cells
4 | c1c2c(cc3c1OCO3)-c1cc3ccc4c(c3c[n+]1CC2)OCO4 [Coptisine Chloride] | 2.1 µM | 73.3% | 6.4% | > 50 µM |  | Dose dependence of parasite growth inhibition ([1]; high concentrations, data not shown): did not inhibit parasite growth in a dose-dependent manner; Host cell inhibition (%) ([2]; listed as coptisine chloride): did not kill the host cells
5 | O=c1cc(-c2ccc(O)c(O)c2)oc2cc(O)cc(O)c12 [Luteolin] | 5.7 µM | 74.3% |  | > 50 µM | effectively inhibited the intracellular parasite growth | 
6 | CCc1nc(N)nc(N)c1-c1ccc(Cl)cc1 [Pyrimethamine, reference compound] |  |  |  |  | inhibited the intracellular growth | Selectivity indexes (SI) (Toxoplasma gondii): 0.21
7 | CC(C)=CC[C@@H](O)C1=CC(=O)c2c(O)ccc(O)c2C1=O [Shikonin] | 1.4 µM | 87.3% | 43.4% | 17.8 µM |  | Host cell inhibition (%) ([2]; listed as shikonin): did not kill the host cells; also recorded: killed some of the host cells
8 | C[C@H]1CC[C@@]2(OC1)O[C@H]1C[C@H]3[C@@H]4CC[C@@H]5C[C@@H](O[C@@H]6O[C@H](CO)[C@H](O)[C@H](O)[C@H]6O[C@@H]6O[C@H](CO)[C@@H](O)[C@H](O)[C@H]6O)CC[C@]5(C)[C@H]4CC[C@]3(C)[C@H]1[C@@H]2C [Timosaponin A-III] |  | 81.4% | 98.3% |  |  | Host cell inhibition (%) ([2]; listed as timosaponin A-III): killed almost all of the host cells
9 | Nc1ccc(S(=O)(=O)Nc2ncccn2)cc1 [sulphadiazine] |  |  |  |  |  | Selectivity indexes (SI) (Toxoplasma gondii): 0.29
10 | dextran sulfate [reference compound] |  |  |  |  |  | Inhibition of intracellular parasite growth ([3]; 25 mg/ml): hardly affected the intracellular parasites
